The compounds below were run against human PDE1B enzyme (Homo sapiens (Human), UniProt Q01064) (assay: IMAP TR-FRET PDE1B enzymatic assay). Conditions: negative log of half-maximal molar inhibitory concentration; 200 nM FAM-cAMP; values given as bins.
Type: biochemical
Method in brief: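 Full-length GST-tagged human PDE1B (250 pg/well) in IMAP BSA buffer with 10 U/ml calmodulin and 2.5 mM CaCl2; compound pre-incubated 5 min at room temperature, then 200 nM (final) FAM-cAMP for 30 min. IMAP binding reagent/Tb added, 1 h; TR-FRET 520/490 ratio read. IC50 from sigmoidal dose-response fit.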
For `Cc1oc2ncnc(NC3(C)CC3)c2c1C(=O)N1CCN(c2ccccc2)CC1` [Example 1, (6-Methyl-4-((1-methylcyclopropyl)amino)furo[2,3-d]pyrimidin-5-yl)(4-phenylpiperazin-1-yl)methanone], the “PDE1b (pIC50)” value was over 8.
`Cc1oc2ncnc(NC3(C)CC3)c2c1C(=O)NCc1nc2cc(F)ccc2o1` [Example 751, N-[(5-Fluoro-1,3-benzoxazol-2-yl)methyl]-6-methyl-4-[(1-methylcyclopropyl)amino]furo[2,3-d]pyrimidine-5-carboxamide] was tested, and the “PDE1b (pIC50)” value was over 8.
With `Cc1oc2ncnc(NC3(C)CC3)c2c1C(=O)N1CCC(c2ccnc(F)c2)C1` (stereo not shown) [Example 21, 5-[3-(2-Fluoropyridin-4-yl)pyrrolidine-1-carbonyl]-6-methyl-N-(1-methylcyclopropyl)furo[2,3-d]pyrimidin-4-amine] the “PDE1b (pIC50)” value was over 8.
For `Cc1oc2ncnc(NC3(C)CC3)c2c1C(=O)N1CCc2c(ncnc2NC(C)C)C1` [Example 762, 6-Methyl-N-(1-methylcyclopropyl)-5-f{4-[(propan-2-yl)amino]-5H,6H,7H,8H-pyrido[3,4-d]pyrimidine-7-carbonyl}furo[2,3-d]pyrimidin-4-amine], the “PDE1b (pIC50)” value was over 8.
`Cc1oc2ncnc(NC3(C)CC3)c2c1C(=O)N1CCc2c(O)cccc2C1` [Example 329, 2-{6-Methyl-4-[(1-methylcyclopropyl)amino]furo[2,3-d]pyrimidine-5-carbonyl}-1,2,3,4-tetrahydroisoquinolin-5-ol] was tested, and the “PDE1b (pIC50)” value was over 8.
For `COc1ccc(C2(NC(=O)c3c(C)oc4ncnc(NC5(C)CC5)c34)CC2)cc1F` [Example 298, N-[1-(3-Fluoro-4-methoxyphenyl)cyclopropyl]-6-methyl-4-[(1-methylcyclopropyl)amino]furo[2,3-d]pyrimidine-5-carboxamide], the “PDE1b (pIC50)” value was over 8.
In the case of `Cc1oc2ncnc(NC3(C)CC3)c2c1C(=O)N1CC(O)(c2ccc(F)cc2)C1` [Example 101, 3-(4-Fluorophenyl)-1-{6-methyl-4-[(1-methylcyclopropyl)amino]furo[2,3-d]pyrimidine-5-carbonyl}azetidin-3-ol], the “PDE1b (pIC50)” value is reported as over 8.

Same assay, conditions: negative log of half-maximal molar inhibitory concentration; 200 nM FAM-cAMP; values given as bins; read-out: PDE1b (pIC50) (converted)
Compound `Cc1ccc(NC(=O)c2c(C)oc3ncnc(NC4(C)CC4)c23)nn1` [Example 434, 6-Methyl-4-[(1-methylcyclopropyl)amino]-N-(6-methylpyridazin-3-yl)furo[2,3-d]pyrimidine-5-carboxamide] has an IC50 of 0.1 to 1 µM.
`Cc1oc2ncnc(NC3(C)CC3)c2c1C(=O)NCc1cscn1` [Example 75, 6-Methyl-4-[(1-methylcyclopropyl)amino]-N-(1,3-thiazol-4-ylmethyl)furo[2,3-d]pyrimidine-5-carboxamide] showed an IC50 of 0.01 to 0.1 µM.
Work on `Cc1oc2ncnc(NC3(C)CC3)c2c1C(=O)N1CCn2c(cnc2C2CC2)C1` [Example 684, 5-{3-Cyclopropyl-5H,6H,7H,8H-imidazo[1,5-a]pyrazine-7-carbonyl}-6-methyl-N-(1-methylcyclopropyl)furo[2,3-d]pyrimidin-4-amine] yielded an IC50 of 0.1 to 1 µM.
Work on `Cc1oc2ncnc(NC3(C)CC3)c2c1C(=O)N1CCC(C#N)(c2cccc(F)n2)CC1` [Example 444, 4-(6-Fluoropyridin-2-yl)-1-{6-methyl-4-[(1-methylcyclopropyl)amino]furo[2,3-d]pyrimidine-5-carbonyl}piperidine-4-carbonitrile] yielded an IC50 of 0.01 to 0.1 µM.
Work on `Cc1oc2ncnc(NC3(C)CC3)c2c1C(=O)N1CCc2c(ncnc2N(C)C2CCOCC2)C1` [Example 793, 6-Methyl-5-{4-[methyl(oxan-4-yl)amino]-5H,6H,7H,8H-pyrido[3,4-d]pyrimidine-7-carbonyl}-N-(1-methylcyclopropyl)furo[2,3-d]pyrimidin-4-amine] yielded an IC50 of 0.01 to 0.1 µM.
For `COc1cc(CN(C)C(=O)c2c(C)oc3ncnc(NC4(C)CC4)c23)ncn1` [Example 685, N-[(6-Methoxypyrimidin-4-yl)methyl]-N,6-dimethyl-4-[(1-methylcyclopropyl)amino]furo[2,3-d]pyrimidine-5-carboxamide], the IC50 was 0.1 to 1 µM.
In the case of `Cc1oc2ncnc(NC3(C)CC3)c2c1C(=O)NC1CN(c2ccncn2)C1` [Example 720, 6-Methyl-4-[(1-methylcyclopropyl)amino]-N-[1-(pyrimidin-4-yl)azetidin-3-yl]furo[2,3-d]pyrimidine-5-carboxamide], the IC50 is reported as 0.1 to 1 µM.
Compound `Cc1cccc(NC(=O)c2c(C)oc3ncnc(NC4(C)CC4)c23)n1` [Example 426, 6-Methyl-4-[(1-methylcyclopropyl)amino]-N-(6-methylpyridin-2-yl)furo[2,3-d]pyrimidine-5-carboxamide] has an IC50 of 0.01 to 0.1 µM.
`Cc1oc2ncnc(NC3(C)CC3)c2c1C(=O)NC1CC(F)(F)C1` [Example 128, N-(3,3-Difluorocyclobutyl)-6-methyl-4-[(1-methylcyclopropyl)amino]furo[2,3-d]pyrimidine-5-carboxamide] gave an IC50 of 0.1 to 1 µM.
`Cc1oc2ncnc(NC3(C)CC3)c2c1C(=O)N1CCC(c2ccncc2)C1` (stereo not shown) [Example 72, 6-Methyl-N-(1-methylcyclopropyl)-5-[3-(pyridin-4-yl)pyrrolidine-1-carbonyl]furo[2,3-d]pyrimidin-4-amine] showed an IC50 of 0.01 to 0.1 µM.
`Cc1oc2ncnc(NC3(C)CC3)c2c1C(=O)NC1CCc2ccccc21` (stereo not shown) [Example 230, N-(2,3-Dihydro-1H-inden-1-yl)-6-methyl-4-[(1-methylcyclopropyl)amino]furo[2,3-d]pyrimidine-5-carboxamide] showed an IC50 of 0.01 to 0.1 µM.
`Cc1oc2ncnc(NC3(C)CC3)c2c1C(=O)NCc1ccnc(C2CC2)n1` [Example 689, N-[(2-Cyclopropylpyrimidin-4-yl)methyl]-6-methyl-4-[(1-methylcyclopropyl)amino]furo[2,3-d]pyrimidine-5-carboxamide] showed an IC50 of 0.01 to 0.1 µM.
In the case of `Cc1nc(NC(=O)c2c(C)oc3ncnc(NC4(C)CC4)c23)sc1C` [Example 433, N-(Dimethyl-1,3-thiazol-2-yl)-6-methyl-4-[(1-methylcyclopropyl)amino]furo[2,3-d]pyrimidine-5-carboxamide], the IC50 is reported as 0.01 to 0.1 µM.
`CCc1cc(CN(C)C(=O)c2c(C)oc3ncnc(NC4(C)CC4)c23)on1` [Example 251, N-[(3-Ethyl-1,2-oxazol-5-yl)methyl]-N,6-dimethyl-4-[(1-methylcyclopropyl)amino]furo[2,3-d]pyrimidine-5-carboxamide] gave an IC50 of 0.01 to 0.1 µM.
`Cc1oc2ncnc(NC3(C)CC3)c2c1C(=O)NCc1ccccc1Cl` [Example 254, N-[(2-Chlorophenyl)methyl]-6-methyl-4-[(1-methylcyclopropyl)amino]furo[2,3-d]pyrimidine-5-carboxamide] showed an IC50 of 0.01 to 0.1 µM.
In the case of `Cc1oc2ncnc(NC3(C)CC3)c2c1C(=O)NCCc1c[nH]c2ccc(F)cc12` [Example 207, N-[2-(5-Fluoro-1H-indol-3-yl)ethyl]-6-methyl-4-[(1-methylcyclopropyl)amino]furo[2,3-d]pyrimidine-5-carboxamide], the IC50 is reported as 0.01 to 0.1 µM.
Work on `Cc1oc2ncnc(NC3(C)CC3)c2c1C(=O)NC1(CCO)CC1` [Example 297, N-[1-(2-Hydroxyethyl)cyclopropyl]-6-methyl-4-[(1-methylcyclopropyl)amino]furo[2,3-d]pyrimidine-5-carboxamide] yielded an IC50 of 0.01 to 0.1 µM.
In the case of `Cc1oc2ncnc(NC3(C)CC3)c2c1C(=O)NCCC(F)(F)F` [Example 754, 6-Methyl-4-[(1-methylcyclopropyl)amino]-N-(3,3,3-trifluoropropyl)furo[2,3-d]pyrimidine-5-carboxamide], the IC50 is reported as 0.01 to 0.1 µM.
`Cc1oc2ncnc(NC3(C)CC3)c2c1C(=O)N1CCc2nc(C3CCOCC3)ccc2C1` [Example 290, 6-Methyl-N-(1-methylcyclopropyl)-5-[2-(oxan-4-yl)-5,6,7,8-tetrahydro-1,6-naphthyridine-6-carbonyl]furo[2,3-d]pyrimidin-4-amine] gave an IC50 of 0.01 to 0.1 µM.
`Cc1oc2ncnc(NC3(C)CC3)c2c1C(=O)NC1CCOC1` (stereo not shown) [Example 106, 6-Methyl-4-[(1-methylcyclopropyl)amino]-N-(oxolan-3-yl)furo[2,3-d]pyrimidine-5-carboxamide] was tested, and the IC50 was 0.01 to 0.1 µM.
With `Cc1oc2ncnc(NC3(C)CC3)c2c1C(=O)NCc1cnn(C)c1` [Example 646, 6-Methyl-N-[(1-methyl-1H-pyrazol-4-yl)methyl]-4-[(1-methylcyclopropyl)amino]furo[2,3-d]pyrimidine-5-carboxamide] the IC50 was 0.01 to 0.1 µM.
`COc1ccc(C2CN(C(=O)c3c(C)oc4ncnc(NC5(C)CC5)c34)CCO2)cc1` (stereo not shown) [Example 123, 5-[2-(4-Methoxyphenyl)morpholine-4-carbonyl]-6-methyl-N-(1-methylcyclopropyl)furo[2,3-d]pyrimidin-4-amine] was tested, and the IC50 was 0.1 to 1 µM.
Work on `Cc1oc2ncnc(NC3(C)CC3)c2c1C(=O)N1CCc2c(O)ccnc2C1` [Example 19, 7-{6-methyl-4-[(1-methylcyclopropyl)amino]furo[2,3-d]pyrimidine-5-carbonyl}-5,6,7,8-tetrahydro-1,7-naphthyridin-4-ol] yielded an IC50 of 0.1 to 1 µM.
`Cc1oc2ncnc(NC3(C)CC3)c2c1C(=O)NCc1ncccn1` [Example 653, 6-Methyl-4-[(1-methylcyclopropyl)amino]-N-(pyrimidin-2-ylmethyl)furo[2,3-d]pyrimidine-5-carboxamide] showed an IC50 of 0.01 to 0.1 µM.
`Cc1nn(C)c(C)c1NC(=O)c1c(C)oc2ncnc(NC3(C)CC3)c12` [Example 418, 6-Methyl-4-[(1-methylcyclopropyl)amino]-N-(trimethyl-1H-pyrazol-4-yl)furo[2,3-d]pyrimidine-5-carboxamide] was tested, and the IC50 was 0.01 to 0.1 µM.
`Cc1ccc(CCNC(=O)c2c(C)oc3ncnc(NC4(C)CC4)c23)cc1` [Example 235, 6-Methyl-4-[(1-methylcyclopropyl)amino]-N-[2-(4-methylphenyl)ethyl]furo[2,3-d]pyrimidine-5-carboxamide] gave an IC50 of 0.01 to 0.1 µM.
`Cc1oc2ncnc(NC3(C)CC3)c2c1C(=O)NC(C)c1ccon1` (stereo not shown) [Example 750, 6-Methyl-4-[(1-methylcyclopropyl)amino]-N-[1-(1,2-oxazol-3-yl)ethyl]furo[2,3-d]pyrimidine-5-carboxamide] gave an IC50 of 0.01 to 0.1 µM.
